One series has as its system IGR-37 cell line. The series can be described thus: Antitumor activity against human IGR-37 cells xenografted in po dosed NMRI nude mouse assessed as tumor growth inhibition administered twice daily. The class given is functional, organism-based. Particulars: dose 0.5-2.5 mg/kg. For orientation: Xenograft models place foreign cells or tissue in a host animal.
For series [1], the target named is cGMP-inhibited 3',5'-cyclic phosphodiesterase 3A (Homo sapiens, UniProt Q14432). The series can be described thus: Inhibition of human full-length PDE3A expressed in Sf9 cells using [8-3H]adenosine 3', 5'-cyclic phosphate as substrate incubated for 60 mins by microbeta scintillation counting method.
cGMP-inhibited 3',5'-cyclic phosphodiesterase 3A, sequence (Q14432 whole entry): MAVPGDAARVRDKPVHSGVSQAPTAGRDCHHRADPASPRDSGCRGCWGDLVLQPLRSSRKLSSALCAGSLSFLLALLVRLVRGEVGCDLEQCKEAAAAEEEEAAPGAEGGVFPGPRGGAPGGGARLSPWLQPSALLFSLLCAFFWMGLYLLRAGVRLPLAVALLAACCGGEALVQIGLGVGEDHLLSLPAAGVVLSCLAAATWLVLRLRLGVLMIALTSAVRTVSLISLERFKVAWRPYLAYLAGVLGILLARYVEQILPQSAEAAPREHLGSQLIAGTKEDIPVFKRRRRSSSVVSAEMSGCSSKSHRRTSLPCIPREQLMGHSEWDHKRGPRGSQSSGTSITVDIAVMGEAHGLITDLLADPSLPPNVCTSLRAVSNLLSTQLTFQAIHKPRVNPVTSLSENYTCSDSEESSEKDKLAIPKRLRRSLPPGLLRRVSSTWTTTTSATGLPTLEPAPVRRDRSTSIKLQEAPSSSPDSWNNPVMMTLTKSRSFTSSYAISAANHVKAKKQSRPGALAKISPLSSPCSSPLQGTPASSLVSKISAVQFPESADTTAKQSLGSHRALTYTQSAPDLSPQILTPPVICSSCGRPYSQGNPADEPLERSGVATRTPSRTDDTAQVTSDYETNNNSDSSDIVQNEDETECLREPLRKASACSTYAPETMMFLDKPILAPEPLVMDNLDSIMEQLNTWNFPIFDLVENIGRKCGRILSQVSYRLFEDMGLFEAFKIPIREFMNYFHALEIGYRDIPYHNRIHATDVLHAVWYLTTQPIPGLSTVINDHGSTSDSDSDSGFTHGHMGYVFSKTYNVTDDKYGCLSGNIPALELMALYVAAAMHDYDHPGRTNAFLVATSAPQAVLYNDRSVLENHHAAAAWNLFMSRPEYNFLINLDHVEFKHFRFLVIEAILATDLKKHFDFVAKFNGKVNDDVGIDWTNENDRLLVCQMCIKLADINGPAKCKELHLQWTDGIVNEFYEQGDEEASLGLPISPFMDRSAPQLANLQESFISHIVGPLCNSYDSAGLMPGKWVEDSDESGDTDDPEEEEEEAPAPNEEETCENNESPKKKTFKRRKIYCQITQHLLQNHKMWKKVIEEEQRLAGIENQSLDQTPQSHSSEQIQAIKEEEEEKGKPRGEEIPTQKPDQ
A further series deals with RVH-421. Nature of the series: Antiproliferative activity against human RVH-421 cells incubated for 72 hrs by Cell Titer Glo luminescence assay. Type of series: functional, cell-based. Particulars: RVH-421, 72 h. (In ATP-based viability assays light output follows the ATP content of the culture.)
Series [2] can be described thus: Metabolic stability in human hepatocytes assessed as bioavailability at 1 uM measured upto 90 mins by LC-MS/MS analysis. The class given is ADME, Hepatocyte.
The subject of a further series is GB-1. The series can be described thus: Antiproliferative activity against human GB-1 cells incubated for 72 hrs by CellTiter-Glo luminescence assay. Type of series: functional, cell-based. Particulars: GB-1, 72 h.
Series [3] in a line: Oral bioavailability in mouse. The class given is ADME, organism-based. Particulars: in vivo.
The nature of series [4]: Antiproliferative activity against human IGR-37 cell line. Type of series: functional, cell-based.
Series [5] is described as follows: Oral bioavailability in dog. The class given is ADME, organism-based, Canis lupus familiaris. Conditions: in vivo.
The nature of series [6]: Antiproliferative activity against human L3.3 cells incubated for 72 hrs by Cell Titer Glo luminescence assay. Type of series: functional, cell-based. Particulars: L3.3, 72 h.
For another series, the system named is C32. Nature of the series: Antiproliferative activity against human C32 cells incubated for 72 hrs by Cell Titer Glo luminescence assay. The class given is functional, cell-based. Conditions: C32, 72 h.
Series [7] is described as follows: Toxicity in NOD-SCID mouse assessed as tolerability at 10 mg/kg, po BID. Particulars: in vivo. Type of series: organism-based.
Series [8] in a line: Metabolic stability in rat hepatocytes assessed as bioavailability at 1 uM measured upto 90 mins by LC-MS/MS analysis. Type of series: ADME, Hepatocyte.
Series [9] in a line: Antiproliferative activity against human NCI-H196 cells incubated for 72 hrs by Cell Titer Glo luminescence assay. Type of series: functional, cell-based. Conditions: NCI-H196, 72 h.
A further series has as its system HeLa. Nature of the series: Antiproliferative activity against human HeLa cells incubated for 72 hrs by Cell Titer Glo luminescence assay. The class given is functional, cell-based.
A short description of series [10]: Toxicity in NOD-SCID mouse assessed as weight loss at 10 mg/kg, po BID. The class given is organism-based. Conditions: in vivo.
A short description of series [11]: Protein binding in plasma (unknown origin). The class given is ADME, cell-free. Particulars: read-out: PPB (converted).
Series [12] in a line: Oral bioavailability in rat. Type of series: ADME, organism-based. Particulars: in vivo.
Series [13] can be described thus: Clearance in rat blood. Type of series: ADME, tissue-based.
A short description of series [14]: Half life in iv dosed rat. Type of series: ADME, organism-based. Particulars: in vivo.
Another series concerns A2058. The series can be described thus: Antiproliferative activity against human A2058 cells incubated for 72 hrs by Cell Titer Glo luminescence assay. Type of series: functional, cell-based. Conditions: A2058, 72 h.
In another series the test system is DK-MG. The series can be described thus: Antiproliferative activity against human DK-MG cells incubated for 72 hrs by Cell Titer Glo luminescence assay. Type of series: functional, cell-based.
Series [15] is described as follows: Metabolic stability in dog hepatocytes assessed as bioavailability at 1 uM measured upto 90 mins by LC-MS/MS analysis. The class given is ADME, Canis lupus familiaris, Hepatocyte.
The nature of series [16]: Half life in iv dosed mouse. Particulars: in vivo. The class given is ADME, organism-based.
Series [17] is described as follows: Metabolic stability in mouse hepatocytes assessed as bioavailability at 1 uM measured upto 90 mins by LC-MS/MS analysis. The class given is ADME, Hepatocyte.
The next series deals with SK-MEL3. The series can be described thus: Antiproliferative activity against human SK-MEL3 cells incubated for 72 hrs by Cell Titer Glo luminescence assay. Type of series: functional, cell-based. Particulars: SK-MEL3, 72 h.
Series [18] can be described thus: Antiproliferative activity against human NCI-H2172 cells incubated for 72 hrs by Cell Titer Glo luminescence assay. The class given is functional, cell-based. Particulars: NCI-H2172, 72 h.
The nature of series [19]: Clearance in mouse blood. The class given is ADME, tissue-based.
Series [20] is described as follows: Selectivity ratio of IC50 for inhibition of full-length human PDE3A expressed in Sf9 cells to EC50 for antiproliferative activity against human HeLa cells.
The nature of series [21]: Half life in iv dosed dog. Type of series: ADME, organism-based, Canis lupus familiaris. Conditions: in vivo.
Another series concerns Hs-578T. The series can be described thus: Antiproliferative activity against human Hs-578T cells incubated for 72 hrs by Cell Titer Glo luminescence assay. The class given is functional, cell-based.

Regarding `C[C@@H]1OC(=O)NN=C1c1ccc(-c2ccc(F)cc2)c(C(F)(F)F)c1`, the Activity entry with IGR-37 cell line is “Dose-Dependent Effect”; in [7], “Non-Toxic”; in [10], “Non-Toxic”. Moreover, the half-inhibitory concentration (IC50) (as a rule, the concentration that gives 50% inhibition) in series [1] is 82 nM. Besides, the EC50 (usually the concentration giving half of the maximal effect) was determined as 140 nM in the series on RVH-421; 8 nM with GB-1; 3.1 nM in series [4]; 82 nM in series [6]; 58 nM with C32; 150 nM in series [9]. For the same molecule, the EC50 with HeLa was 1.04 nM; with A2058 it was 38 nM; with DK-MG, 22 nM; in the series with SK-MEL3, 2.81 nM; in series [18], 38 nM; in the series with Hs-578T it was 33 nM. In addition, the hepatic bioavailability predicted from hepatocyte stability (Fh) at 1 µM in series [2] was 73%. In addition, the bioavailability in series [3], in series [5] and in series [12] was greater than 95% in each case. The predicted hepatic bioavailability (Fh) from hepatocyte stability at 1 µM in series [8] was 94%. The fraction unbound in [11] was 0.002. Also, the values for the clearance in [13] and in series [19] were 4.17 mL/min/kg and 12.5 mL/min/kg, respectively. In addition, the half-life (commonly the time in which the quantity being followed falls by half) is 15 h in [14], 4.6 h in [16] and 13 h in series [21]. In addition, the Fh at 1.5 h, 1 µM in series [15] was 70%; in series [17], 85%. In addition, the “Ratio IC50/EC50” value in series [20] amounted to 79.

Regarding `C[C@@H]1OC(=O)NN=C1c1ccc(-n2cc(C(F)(F)F)cn2)c(C(F)(F)F)c1`, in series [1], the IC50 was determined as 607 nM. The EC50 was found to be 262 nM with RVH-421; 312 nM in series [6]; 132 nM in the series with C32; 355 nM in series [9]; 2.29 nM in the series on HeLa; 96 nM in the series with A2058. Further, the EC50 was determined as 59 nM in the series with DK-MG, 5.26 nM in the series with SK-MEL3, 101 nM in series [18] and 116 nM in the series on Hs-578T. In addition, the hepatic bioavailability predicted from hepatocyte stability (Fh) at 1 µM in series [2] is 79%. The predicted hepatic bioavailability (Fh) from hepatocyte stability at 1 µM in [8] was 93%. Besides, the clearance (as a rule, a measure of how efficiently the substance is removed, as volume per time) is 8.17 mL/min/kg in series [13] and 18.3 mL/min/kg in [19]. The Fh at 1.5 h, 1 µM stood at 87% in series [15] and 63% in series [17]. Also, the “Ratio IC50/EC50” value in series [20] is given as 265.

Take `C[C@@H]1OC(=O)NN=C1c1ccc(-c2cnn(C(F)F)c2)c(C(F)(F)F)c1`: the IC50 in series [1] was found to be 37 nM. The EC50 was found to be 47 nM in the series on RVH-421; 15 nM in series [6]; 52 nM with C32; 32 nM in series [9]; 0.18 nM in the series on HeLa; 25 nM in the series with A2058. Also, the EC50 in the series on DK-MG turned out to be 13 nM; in the series on SK-MEL3 it was 0.38 nM; in [18], 37 nM; in the series with Hs-578T, 20 nM. The hepatic bioavailability predicted from hepatocyte stability (Fh) at 1 µM in series [2] was 32%. The predicted hepatic bioavailability (Fh) from hepatocyte stability at 1 µM in series [8] is 99%. The figures for the Fh at 1.5 h, 1 µM in series [15] and in series [17] were 69% and 27%, respectively. In series [19], this molecule had a clearance of 197 mL/min/kg. Moreover, in series [20], the “Ratio IC50/EC50” value is listed as 202.

The values above are taken from ChEMBL document CHEMBL6071190, “Discovery of BAY 2666605, a Molecular Glue for PDE3A and SLFN12” (ACS Med Chem Lett, 2024).
